Measured values from patent US11345957B2, “Methods of treating glioblastoma in a subject informed by exosomal RNA signatures” (Exosome Diagnostics, Inc., priority 2017, dated 2022).

Tested on: patients diagnosed with glioblastoma mutliforme (GBM)
Assay: Response of GBM patients to Dacomitinib treatment
Type: in vivo, human
Source text: Serum samples were collected from 14 patients diagnosed with glioblastoma mutliforme (GBM) before the administration of Dacomitinib (pre-treatment samples) and 1 month after the initiation of Dacomitinib treatment (post-treatment samples). Of the 14 patients, 7 were deemed to be “responders” to the drug and stayed on the drug for more than 6 months.

COc1cc2ncnc(Nc3ccc(F)c(Cl)c3)c2cc1NC(=O)/C=C/CN1CCCCC1 [Dacomitinib]
time responders stayed on the drug (7 responders of 14 GBM patients): more than 6 months
patients deemed to be "responders" to the drug (of the 14 patients diagnosed with GBM): 7
